Reference: ChEMBL document CHEMBL5042538 (J Med Chem, 2022)

Experiments:
CYP3A [1] = assay: Time dependent inhibition of CYP3A in human liver microsomes assessed as enzyme remaining activity at 10 uM using N-ethyl-1,8-naphthalimide as substrate preincubated for 30 mins in presence of NADPH generating system followed by substrate addition and incubated for 10 mins by microplate reader analysis relative to control; format: ADME; settings: probe N-ethyl-1,8-naphthalimide, time 40 min, read-out: TDI
[2] = Time dependent inhibition of CYP3A in human liver microsomes incubated for 30 mins in presence of NADPH generating system by LC-MS/MS analysis; format: ADME
[3] = Time dependent inhibition of CYP3A in human liver microsomes using midazolam as substrate preincubated for 30 mins in presence of NADPH generating system followed by substrate addition incubated for 30 mins by LC-MS/MS analysi; format: ADME
CYP3A [4] = assay: Inhibition of CYP3A in human liver microsomes at 10 uM using midazolam as substrate incubated for 10 mins relative to control; format: ADME; settings: probe midazolam
[5] = Time dependent inhibition of human CYP3A in human liver microsomes using midazolam as substrate preincubated for 30 mins in presence of NADPH-generating system followed by substrate addition incubated for 10 mins by LC-MS/MS analysis; format: ADME
[6] = Inactivation of CYP3A in human liver microsomes at 0.25 uM using midazolam as substrate in presence of NADPH generating system and catalase; format: ADME
CYP3A4 [7] = target: T1, CYP3A4 (Homo sapiens, UniProt P08684); assay: (§1) Ratio of IC50 for time dependent inhibition of recombinant human CYP3A4 incubated for 30 mins by LC-MS/MS analysis to IC50 for time dependent inhibition of recombinant human CYP3A4 using midazolam as substrate preincubated for 30 mins in presence of NADPH-generating system followed by substrate addition further incubated for 30 mins by LC-MS/MS analysis; settings: recombinant human CYP3A4, probe midazolam, read-out: Ratio IC50
T1 sequence (P08684 whole entry): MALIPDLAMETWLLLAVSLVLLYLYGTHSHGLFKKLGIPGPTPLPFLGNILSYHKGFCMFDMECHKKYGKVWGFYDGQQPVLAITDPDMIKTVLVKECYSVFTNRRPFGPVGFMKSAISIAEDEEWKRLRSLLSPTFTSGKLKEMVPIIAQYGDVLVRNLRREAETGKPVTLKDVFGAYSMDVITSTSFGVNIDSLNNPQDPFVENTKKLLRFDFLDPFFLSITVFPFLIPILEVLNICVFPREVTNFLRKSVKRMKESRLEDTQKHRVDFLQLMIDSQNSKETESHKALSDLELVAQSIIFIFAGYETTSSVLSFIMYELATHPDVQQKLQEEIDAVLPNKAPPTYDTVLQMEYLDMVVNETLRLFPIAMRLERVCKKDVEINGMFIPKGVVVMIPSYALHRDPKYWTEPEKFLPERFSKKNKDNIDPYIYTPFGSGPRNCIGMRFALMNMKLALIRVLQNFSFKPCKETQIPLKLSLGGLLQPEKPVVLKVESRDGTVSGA

CYP3A [8] = assay: as §1, with “CYP3A in” for “recombinant”, “liver microsomes” for “CYP3A4”; settings: probe midazolam, read-out: Ratio IC50
Cytochrome P450 3A4 [9] = target: T2, Cytochrome P450 3A4 (Homo sapiens, UniProt P08684); assay: Inactivation of recombinant human CYP3A4 assessed as partition ratio in presence of NADPH-generating system; format: ADME; settings: recombinant enzyme
T2 sequence (P08684 whole entry): as above

Cytochrome P450 3A5 [10] = target: T3, Cytochrome P450 3A5 (Homo sapiens, UniProt P20815); assay: Time dependent inhibition of recombinant human CYP3A5 using midazolam as substrate preincubated for 30 mins in presence of NADPH generating system followed by substrate addition incubated for 30 mins by LC-MS/MS analysis; format: ADME
T3 sequence (P20815 whole entry): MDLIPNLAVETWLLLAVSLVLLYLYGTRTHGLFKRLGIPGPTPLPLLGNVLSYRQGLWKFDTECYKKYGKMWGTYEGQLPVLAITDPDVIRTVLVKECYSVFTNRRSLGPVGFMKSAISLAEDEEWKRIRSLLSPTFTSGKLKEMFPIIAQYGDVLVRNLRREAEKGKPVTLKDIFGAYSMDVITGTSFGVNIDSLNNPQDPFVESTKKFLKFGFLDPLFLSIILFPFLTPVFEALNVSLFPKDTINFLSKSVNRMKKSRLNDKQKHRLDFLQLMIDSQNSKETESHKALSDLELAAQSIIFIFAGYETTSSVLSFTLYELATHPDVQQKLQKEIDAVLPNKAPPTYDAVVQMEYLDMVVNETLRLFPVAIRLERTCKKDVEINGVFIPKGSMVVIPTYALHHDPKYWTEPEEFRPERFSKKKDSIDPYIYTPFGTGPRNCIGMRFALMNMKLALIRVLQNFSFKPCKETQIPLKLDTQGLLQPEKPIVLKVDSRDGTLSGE

Cytochrome P450 3A4 [11] = target: T2, Cytochrome P450 3A4; assay: Time dependent inhibition of recombinant human CYP3A4 incubated for 30 mins in presence of NADPH generating system by LC-MS/MS analysis; format: ADME
Cytochrome P450 3A5 [12] = target: T3, Cytochrome P450 3A5; assay: Time dependent inhibition of recombinant human CYP3A5 incubated for 30 mins in presence of NADPH generating system by LC-MS/MS analysis; format: ADME
Cytochrome P450 3A7 [13] = target: T4, Cytochrome P450 3A7 (Homo sapiens, UniProt P24462); assay: Time dependent inhibition of recombinant human CYP3A7 incubated for 30 mins in presence of NADPH generating system by LC-MS/MS analysis; format: ADME
T4 sequence (P24462 whole entry): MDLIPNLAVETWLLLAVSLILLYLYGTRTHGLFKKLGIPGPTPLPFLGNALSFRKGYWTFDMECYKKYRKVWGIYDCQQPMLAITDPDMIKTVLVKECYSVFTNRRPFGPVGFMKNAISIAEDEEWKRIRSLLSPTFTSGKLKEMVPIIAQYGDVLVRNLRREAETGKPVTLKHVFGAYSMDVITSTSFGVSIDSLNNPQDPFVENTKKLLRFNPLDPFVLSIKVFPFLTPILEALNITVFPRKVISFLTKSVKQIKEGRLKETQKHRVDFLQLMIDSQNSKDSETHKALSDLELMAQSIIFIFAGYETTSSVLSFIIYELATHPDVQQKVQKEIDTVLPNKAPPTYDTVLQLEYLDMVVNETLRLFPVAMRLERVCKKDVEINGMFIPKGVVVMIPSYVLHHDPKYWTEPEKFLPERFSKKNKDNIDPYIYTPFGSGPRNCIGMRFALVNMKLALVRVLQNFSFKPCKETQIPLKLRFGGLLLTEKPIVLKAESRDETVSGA

Cytochrome P450 3A4 [14] = target: T2, Cytochrome P450 3A4; assay: Time dependent inhibition of recombinant human CYP3A4 using midazolam as substrate preincubated for 30 mins in presence of NADPH generating system followed by substrate addition incubated for 30 mins by LC-MS/MS analysi; format: ADME
Cytochrome P450 3A7 [15] = target: T4, Cytochrome P450 3A7; assay: Time dependent inhibition of recombinant human CYP3A7 using midazolam as substrate preincubated for 30 mins in presence of NADPH generating system followed by substrate addition incubated for 30 mins by LC-MS/MS analysi; format: ADME
[16] = Inactivation of CYP3A in human liver microsomes at 0.25 uM using midazolam as substrate in presence of NADPH generating system and mannitol; format: ADME
CYP3A5 = CYP3A5 (Homo sapiens, UniProt P20815); assay: as §1, with “CYP3A5” for “CYP3A4”; settings: recombinant human CYP3A5, probe midazolam, read-out: Ratio IC50
Chain of CYP3A5 (P20815 whole entry): as the sequence (P20815 whole entry) above

[17] = Inactivation of CYP3A in human liver microsomes at 0.25 uM using midazolam as substrate in presence of NADPH generating system and super oxide dismutase; format: ADME
[18] = Inactivation of CYP3A in human liver microsomes at 0.25 uM using midazolam as substrate in presence of NADPH generating system and ferric cyanide; format: ADME
CYP3A7 = CYP3A7 (Homo sapiens, UniProt P24462); assay: as §1, with “CYP3A7” for “CYP3A4”; settings: recombinant human CYP3A7, probe midazolam, read-out: Ratio IC50
Chain of CYP3A7 (P24462 whole entry): as the sequence (P24462 whole entry) above

CYP3A [19] = assay: Inactivation of CYP3A in human liver microsomes using midazolam as substrate assessed as enzyme remaining activity in presence of glutathione; format: ADME; settings: probe midazolam, read-out: INH
[20] = Inhibition of CYP3A in human liver microsomes at 2.5 uM using Nifedipine as substrate at 10 to 20 fold excess concentration preincubated for 5 mins followed by beta-NADP addition and measured upto 12 mins; format: ADME; settings: 0.2 h, time <=17 min
[21] = Inhibition of CYP3A in human liver microsomes at 2.5 uM using de-oxyschizandrin as substrate at 10 to 20 fold excess concentration preincubated for 5 mins followed by beta-NADP addition and measured upto 12 mins; format: ADME; settings: 0.2 h, time <=17 min
CYP3A4 [22] = target: T1, CYP3A4; assay: Time dependent inhibition of CYP3A4 in human liver microsomes assessed as enzyme remaining activity at 2.5 uM using midazolam as substrate preincubated for 30 mins in presence of NADPH-generating system relative to control; format: ADME; settings: probe midazolam, read-out: TDI
CYP3A4 [23] = target: T1, CYP3A4; assay: Time dependent inhibition of recombinant human CYP3A4 assessed as enzyme remaining activity at 2.5 uM using midazolam as substrate preincubated for 30 mins in presence of NADPH-generating system relative to control; format: ADME; settings: recombinant human CYP3A4, probe midazolam, read-out: TDI
CYP3A4 [24] = assay: Time dependent inhibition of CYP3A4 in human liver microsomes assessed as enzyme remaining activity at 2.5 uM using midazolam as substrate incubated for 30 mins relative to control; format: ADME; settings: probe midazolam, read-out: TDI
CYP3A4 [25] = target: T1, CYP3A4; assay: Time dependent inhibition of recombinant human CYP3A4 assessed as enzyme remaining activity at 2.5 uM using midazolam as substrate incubated for 30 mins relative to control; format: ADME; settings: recombinant human CYP3A4, probe midazolam, read-out: TDI
Cytochrome P450 3A4 [26] = target: T2, Cytochrome P450 3A4; assay: Inactivation of CYP3A4 in human liver microsomes assessed as inhibition constant using midazolam as substrate preincubated for 5 mins followed by beta-NADP addition for 15 mins and midazolam addition after 10 mins in presence of NADPH-generating system by LC-MS/MS analysis; format: ADME
Cytochrome P450 3A4 [27] = target: T2, Cytochrome P450 3A4; assay: Inactivation of recombinant human CYP3A4 assessed as inhibition constant using midazolam as substrate preincubated for 5 mins followed by beta-NADP addition for 15 mins and midazolam addition after 10 mins in presence of NADPH-generating system by LC-MS/MS analysis; format: ADME
CYP3A4 [28] = target: T1, CYP3A4; assay: Inactivation of CYP3A4 in human liver microsomes assessed as inactivation constant using midazolam as substrate preincubated for 5 mins followed by beta-NADP addition for 15 mins and midazolam addition after 10 mins in presence of NADPH-generating system by LC-MS/MS analysis; format: ADME; settings: probe midazolam, time 30 min
CYP3A4 [29] = target: T1, CYP3A4; assay: Inactivation of recombinant human CYP3A4 assessed as inactivation constant using midazolam as substrate preincubated for 5 mins followed by beta-NADP addition for 15 mins and midazolam addition after 10 mins in presence of NADPH-generating system by LC-MS/MS analysis; format: ADME; settings: recombinant human CYP3A4, probe midazolam, time 30 min
CYP3A4 [30] = target: T1, CYP3A4; assay: Inactivation of recombinant human CYP3A4 at 0.1 uM for 10 mins relative to control; format: ADME
Cytochrome P450 3A4 [31] = target: T2, Cytochrome P450 3A4; assay: Drug metabolism assessed as human CYP3A4-mediated M1 metabolite formation at 7.32 mins in presence of NADPH generating system by LC-MS/MS analysis; format: ADME; settings: recombinant enzyme, 0.122 h
Cytochrome P450 3A4 [32] = target: T2, Cytochrome P450 3A4; assay: Drug metabolism assessed as human CYP3A4-mediated M2 metabolite formation at 7.80 mins in presence of NADPH generating system by LC-MS/MS analysis; format: ADME; settings: recombinant enzyme, 0.13 h, time 7.8 min
[33] = Drug metabolism assessed as human CYP2D6-mediated M1 metabolite formation at 7.32 mins in presence of NADPH generating system by LC-MS/MS analysis; format: ADME; settings: recombinant enzyme, 0.122 h
[34] = Drug metabolism assessed as human CYP2D6-mediated M2 metabolite formation at 7.80 mins in presence of NADPH generating system by LC-MS/MS analysis; format: ADME; settings: recombinant enzyme, 0.13 h, time 7.8 min
CYP3A [35] = assay: Inhibition of CYP3A in human liver microsomes at 1 uM using midazolam as substrate incubated for 10 mins relative to control; format: ADME; settings: probe midazolam

C[C@]12CC[C@H](O)C[C@H]1CC[C@@H]1[C@@H]2CC[C@]2(C)[C@@H](c3ccc(=O)oc3)CC[C@]12O [BUFALIN]
activity at 10 min, 10 µM (CYP3A [1]): 6.81%
IC50 [2]: 11.4 µM
IC50 [3]: 0.74 µM
inhibition at 10 min, 10 µM (CYP3A [4]): 53%

C[C@]12CCC(=O)C[C@H]1CC[C@@H]1[C@@H]2CC[C@]2(C)[C@@H](c3ccc(=O)oc3)CC[C@]12O
IC50 [5]: 0.03 µM
inhibition (INH) [6]: Active
IC50 shift at 0.5 h (CYP3A4 [7]): 17.3
IC50 shift at 0.5 h (CYP3A [8]): 12.3
Ratio (Cytochrome P450 3A4 [9]): 0.75
IC50 (Cytochrome P450 3A5 [10]): 2.34 µM
IC50 [2]: 0.37 µM
IC50 [3]: 0.45 µM
IC50 (Cytochrome P450 3A4 [11]): 1.56 µM
IC50 (Cytochrome P450 3A5 [12]): 5.49 µM
IC50 (Cytochrome P450 3A7 [13]): 10.8 µM
IC50 (Cytochrome P450 3A4 [14]): 0.09 µM
IC50 (Cytochrome P450 3A7 [15]): 64.8 µM
inhibition (INH) [16]: Active
IC50 shift at 0.5 h (CYP3A5): 5.87
inhibition (INH) [17]: Active
inhibition (INH) [18]: Active
IC50 shift at 0.5 h (CYP3A7): 17.5
activity (CYP3A [19]): 43.8%
inhibition (INH) [20]: Not Active
inhibition (INH) [21]: Not Active
activity at 30 min, 2.5 µM (CYP3A4 [22]): 19.7%
activity at 30 min, 2.5 µM (CYP3A4 [23]): 11.9%
activity at 0.5 h, 2.5 µM (CYP3A4 [24]): 72.5%
activity at 0.5 h, 2.5 µM (CYP3A4 [25]): 81.2%
Ki (Cytochrome P450 3A4 [26]): 0.66 µM
Ki (Cytochrome P450 3A4 [27]): 0.25 µM
kinact (CYP3A4 [28]): 0.00107 s⁻¹
kinact (CYP3A4 [29]): 0.00268 s⁻¹
inhibition at 10 min, 0.1 µM (CYP3A4 [30]): 50%
Drug metabolism (Cytochrome P450 3A4 [31]): Metabolite_Detected
Drug metabolism (Cytochrome P450 3A4 [32]): Metabolite_Detected
Drug metabolism [33]: Metabolite_Detected
Drug metabolism [34]: Metabolite_Detected
inhibition at 10 min, 1 µM (CYP3A [35]): 49%

C[C@]12CCC(=O)C[C@H]1CC[C@@H]1[C@@H]2CC[C@]2(C)[C@@H](c3ccc(=O)oc3)C[C@H]3O[C@]132
IC50 shift at 0.5 h (CYP3A [8]): 11.4
IC50 [2]: 5.93 µM
IC50 [3]: 0.52 µM

CC(=O)O[C@H]1[C@H]2O[C@]23[C@@H]2CC[C@@H]4CC(=O)CC[C@]4(C)[C@H]2CC[C@]3(C)[C@H]1c1ccc(=O)oc1
IC50 shift at 0.5 h (CYP3A [8]): 24.8
IC50 [2]: 13.4 µM
IC50 [3]: 0.54 µM
